Data reported in patent US4943576A, “Substituted quinoxalyl-imidazolidine-2,4-diones, processes for their preparation, their use as medicaments and pharmaceutical preparations” (Hoechst Aktiengesellschaft, priority 1987, dated 1990).

Legend:
[1] = system: sorbitol accumulation in nerve tissue; test: Reduction of increased sorbitol levels in streptozotocin-diabetic rats, nerve tissue; type: in vivo; details: 25 mg/kg oral in Tylose suspension, vs untreated controls
Description: (§1) 3. reduction of increased sorbitol levels in streptozotocin-diabetic rats in vivo;
(§2) Reduction of increased sorbitol levels
(§3) The oral administration in ®Tylose suspension (=suspension of a water-soluble cellulose ether), of the substances mentioned as examples in the following Table 3 to streptozotocin-diabetic rats leads to a great reduction in the sorbitol accumulation in erythrocytes and in the nerve tissue in comparison with untreated control animals.

[2] = system: sorbitol accumulation in erythrocytes; test: Reduction of increased sorbitol levels in streptozotocin-diabetic rats, erythrocytes; type: in vivo; details: 25 mg/kg oral in Tylose suspension, vs untreated controls
Description: as §1, §2, §3

[3] = system: sorbitol accumulation in erythrocytes; test: In vitro inhibition of sorbitol accumulation, erythrocytes (tissue of normal rats); type: cell-based; details: Rattus norvegicus, Erythrocyte, 3 μmol/l
Experimental: (§4) 2. in vitro inhibition of the sorbitol accumulation in erythrocytes in the lens or in the sciatic nerve of normal or streptozotocin-diabetic rats;
(§5) In vitro inhibition of sorbitol accumulation (tissue of normal rats)
(§6) The inhibiting values summarized in Table 2 were determined for some of the compounds according to the invention at a concentration of 3 μmol/l.

[4] = system: sorbitol accumulation in nerve; test: In vitro inhibition of sorbitol accumulation, nerve (tissue of normal rats); type: cell-based; details: Rattus norvegicus, 3 μmol/l
Experimental: as §4, §5, §6

[5] = molecular target: aldose reductase (Rattus norvegicus, UniProt P07943); test: In vitro inhibition of enzyme activity (rat hepatic enzyme preparation); type: biochemical; details: read-out: IC50 (molar concentration required for 50% inhibition of aldose reductase)
Description: 1. in vitro inhibition of the enzyme activity of isolated aldose reductase;
In vitro inhibition of enzyme activity (rat hepatic enzyme preparation)
The inhibiting values on aldose reductase are summarized in Table 1 for some compounds according to the invention (IC50 [M] denotes the molar concentration of the compound which is required for 50% inhibition).

Row | IC50 [5] | Compound | Sorbitol content after 5 hours in nerve tissue [1] | Sorbitol content after 5 hours in erythrocytes [2] | inhibition at 3 µM [3] | inhibition at 3 µM [4]
1 |  | 5-(6'/7'-Fluoro-quinoxalin-2'-yl)-5-methyl-imidazolidine-2,4-dione [Example 25] | -70% | -66% |  | 
2 |  | Cc1cc2nc(C)c(C3(C)NC(=O)NC3=O)nc2cc1C (centres unmarked) [Example 20, 5-Methyl-5-(3',6',7'-trimethyl-quinoxalin-2'-yl)-imidazolidine-2,4-dione hydrate] |  |  | -29% | 
3 |  | CCc1nc2ccc(C3(C)NC(=O)NC3=O)cc2nc1CC (centres unmarked) [Example 2, 5-(2',3'-Diethyl-quinoxalin-6'-yl)-5-methyl-imidazolidine2,4-dione] | -22% | -57% |  | -30%
4 |  | CC1(c2cnc3ccccc3n2)NC(=O)NC1=O (centres unmarked) [Example 18, 5-(Quinoxalin-2'-yl)-5-methyl-imidazolidine-2,4-dione] |  |  | -10% | -39%
5 |  | COc1cc2ncc(C3(C)NC(=O)NC3=O)nc2cc1OC (centres unmarked) [Example 21, 5-(6',7'-Dimethoxy-quinoxalin-2'-yl)-5-methyl-imidazolidine-2,4-dione] |  |  | -26% | -38%
6 | 280 µM | 5-(6'/7'-Fluoro-3'-methyl-quinoxalin-2'-yl)-5-methyl-imidazolidine-2,4-dion [Example 26] |  |  |  | 
7 |  | Cc1nc2ccccc2nc1C1(C)NC(=O)NC1=O (single isomer, unassigned; (+)) [Example 33, (+)-5-Methyl-5-(3'-methyl-quinoxalin-2'-yl)-imidazolidine-2,4-dione] |  |  | -26% | -30%
8 |  | Cc1nc2ccccc2nc1C1(C)NC(=O)NC1=O (centres unmarked) [Example 23, 5-Methyl-5-(3'-methyl-quinoxalin-2'-yl)-imidazolidine-2,4-dione] | -83% | -72% | -21% | -65%
